Test results published in patent US9149038B2, “4-amino-6-(heterocyclic)picolinates and 6-amino-2-(heterocyclic)pyrimidine-4-carboxylates and their use as herbicides” (Dow AgroSciences LLC, priority 2013, dated 2015).
Where two headings read alike, the source gives them in different places.

How the values were obtained:
[1] = system: Key Grass and Sedge Weeds as well as Grass Crops; assay: Post-Emergent Test II: postemergent herbicidal activity, visual rating after 14 d (Table 8); assay type: in vivo; settings: post-emergence, 336 h; for pest or weed control at 35 g/ha: 35 g ai/ha; for pest or weed control at 70 g/ha: 70 g ai/ha; for pest or weed control at 140 g/ha: 140 g ai/ha
Procedure, shortened: (§1)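 Post-emergence foliar spray, 187 L/ha, first/second true leaf stage plants in potting mix (pH 6.0-6.8). Rates: top rate and 2-fold serial dilutions to 1/16×. Solvent-blank controls. Readout: visual % kill at 14 d.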

[2] = system: Key Broadleaf Weed and Crop Species; assay: Post-Emergent Test II: postemergent herbicidal activity, visual rating after 14 d (Table 7); assay type: in vivo; settings: post-emergence, 336 h; for pest or weed control at 35 g/ha: 35 g ai/ha; for pest or weed control at 70 g/ha: 70 g ai/ha; for pest or weed control at 140 g/ha: 140 g ai/ha
Procedure, shortened: as §1

[3] = barnyardgrass (Echinochloa crus-galli), read-out: Visual Growth Reduction (%) 14 Days After Application ECHCG
[4] = giant foxtail (Setaria faberi), read-out: Visual Growth Reduction (%) 14 Days After Application SETFA
[5] = maize, corn (Zea mays), read-out: Visual Growth Reduction (%) 14 Days After Application ZEAMX
[6] = rice (Oryza sativa), read-out: Visual Growth Reduction (%) 14 Days After Application ORYSA
[7] = wheat, spring (Triticum aestivum), read-out: Visual Growth Reduction (%) 14 Days After Application TRZAS
[8] = yellow nutsedge (Cyperus esculentus), read-out: Visual Growth Reduction (%) 14 Days After Application CYPES
[9] = lambsquarters (Chenopodium album), read-out: Visual Growth Reduction (%) 14 Days After Application CHEAL
[10] = oilseed rape, canola (Brassica napus), read-out: Visual Growth Reduction (%) 14 Days After Application BRSNN
[11] = redroot pigweed (Amaranthus retroflexus), read-out: Visual Growth Reduction (%) 14 Days After Application AMARE
[12] = sunflower (Helianthus annuus), read-out: Visual Growth Reduction (%) 14 Days After Application HELAN
[13] = velvetleaf (Abutilon theophrasti), read-out: Visual Growth Reduction (%) 14 Days After Application ABUTH
[14] = wild poinsettia (Euphorbia heterophylla), read-out: Visual Growth Reduction (%) 14 Days After Application EPHHL

SMILES	pest or weed control at 35 g/ha [1, 3]	pest or weed control at 70 g/ha [1, 3]	pest or weed control at 140 g/ha [1, 3]	pest or weed control at 35 g/ha [1, 4]	pest or weed control at 70 g/ha [1, 4]	pest or weed control at 140 g/ha [1, 4]	pest or weed control at 35 g/ha [1, 5]	pest or weed control at 70 g/ha [1, 5]	pest or weed control at 140 g/ha [1, 5]	pest or weed control at 35 g/ha [1, 6]	pest or weed control at 70 g/ha [1, 6]	pest or weed control at 140 g/ha [1, 6]	pest or weed control at 35 g/ha [1, 7]	pest or weed control at 70 g/ha [1, 7]	pest or weed control at 140 g/ha [1, 7]	pest or weed control at 35 g/ha [1, 8]	pest or weed control at 70 g/ha [1, 8]	pest or weed control at 140 g/ha [1, 8]	pest or weed control at 35 g/ha [2, 9]	pest or weed control at 70 g/ha [2, 9]	further results
COC(=O)c1nc(-c2cc3c(cc2OC)OC(F)(F)O3)cc(N)c1Cl [Compound 38]	0 to 29%	0 to 29%	0 to 29%	0 to 29%	0 to 29%	0 to 29%	0 to 29%	0 to 29%	0 to 29%	0 to 29%	0 to 29%	0 to 29%	0 to 29%	0 to 29%	0 to 29%	0 to 29%	0 to 29%	0 to 29%	0 to 29%	0 to 29%	pest or weed control at 140 g/ha [2, 9]: 0 to 29%; pest or weed control at 35 g/ha [2, 10]: 0 to 29%; pest or weed control at 70 g/ha [2, 10]: 0 to 29%; pest or weed control at 140 g/ha [2, 10]: 0 to 29%; pest or weed control at 35 g/ha [2, 11]: 0 to 29%; pest or weed control at 70 g/ha [2, 11]: 60 to 74%; pest or weed control at 140 g/ha [2, 11]: 60 to 74%; pest or weed control at 35 g/ha [2, 12]: 0 to 29%; pest or weed control at 70 g/ha [2, 12]: 0 to 29%; pest or weed control at 140 g/ha [2, 12]: 60 to 74%; pest or weed control at 35 g/ha [2, 13]: 0 to 29%; pest or weed control at 70 g/ha [2, 13]: 0 to 29%; pest or weed control at 140 g/ha [2, 13]: 0 to 29%; pest or weed control at 35 g/ha [2, 14]: 0 to 29%; pest or weed control at 70 g/ha [2, 14]: 0 to 29%; pest or weed control at 140 g/ha [2, 14]: 0 to 29%
COC(=O)c1nc(-c2cc3c(cc2F)OCO3)cc(N)c1Cl [Compound 45]	75 to 84%	75 to 84%	85 to 94%	60 to 74%	60 to 74%	85 to 94%	45 to 59%	60 to 74%	75 to 84%	45 to 59%	60 to 74%	60 to 74%	30 to 44%	45 to 59%	60 to 74%	30 to 44%	30 to 44%	60 to 74%	85 to 94%	95 to 100%	pest or weed control at 140 g/ha [2, 9]: 95 to 100%; pest or weed control at 35 g/ha [2, 10]: 75 to 84%; pest or weed control at 70 g/ha [2, 10]: 95 to 100%; pest or weed control at 140 g/ha [2, 10]: 95 to 100%; pest or weed control at 35 g/ha [2, 11]: 95 to 100%; pest or weed control at 70 g/ha [2, 11]: 95 to 100%; pest or weed control at 140 g/ha [2, 11]: 95 to 100%; pest or weed control at 35 g/ha [2, 12]: 60 to 74%; pest or weed control at 70 g/ha [2, 12]: 60 to 74%; pest or weed control at 140 g/ha [2, 12]: 75 to 84%; pest or weed control at 35 g/ha [2, 13]: 95 to 100%; pest or weed control at 70 g/ha [2, 13]: 95 to 100%; pest or weed control at 140 g/ha [2, 13]: 95 to 100%; pest or weed control at 35 g/ha [2, 14]: 75 to 84%; pest or weed control at 70 g/ha [2, 14]: 85 to 94%; pest or weed control at 140 g/ha [2, 14]: 95 to 100%
Nc1cc(-c2cc(F)c3c(c2)OC(F)(F)O3)nc(C(=O)O)c1Cl [Compound 44]	60 to 74%	60 to 74%	75 to 84%	0 to 29%	0 to 29%	0 to 29%	0 to 29%	0 to 29%	0 to 29%	0 to 29%	0 to 29%	0 to 29%	0 to 29%	0 to 29%	0 to 29%	0 to 29%	0 to 29%	0 to 29%	0 to 29%	0 to 29%	pest or weed control at 140 g/ha [2, 9]: 0 to 29%; pest or weed control at 35 g/ha [2, 10]: 0 to 29%; pest or weed control at 70 g/ha [2, 10]: 0 to 29%; pest or weed control at 140 g/ha [2, 10]: 0 to 29%; pest or weed control at 35 g/ha [2, 11]: 0 to 29%; pest or weed control at 70 g/ha [2, 11]: 0 to 29%; pest or weed control at 140 g/ha [2, 11]: 0 to 29%; pest or weed control at 35 g/ha [2, 12]: 0 to 29%; pest or weed control at 70 g/ha [2, 12]: 0 to 29%; pest or weed control at 140 g/ha [2, 12]: 0 to 29%; pest or weed control at 35 g/ha [2, 13]: 0 to 29%; pest or weed control at 70 g/ha [2, 13]: 0 to 29%; pest or weed control at 140 g/ha [2, 13]: 0 to 29%; pest or weed control at 35 g/ha [2, 14]: 0 to 29%; pest or weed control at 70 g/ha [2, 14]: 0 to 29%; pest or weed control at 140 g/ha [2, 14]: 0 to 29%
COC(=O)c1nc(-c2ccc3c(c2C)OC(F)(F)O3)cc(N)c1Cl [Compound 35]	0 to 29%	0 to 29%	0 to 29%	0 to 29%	0 to 29%	0 to 29%	0 to 29%	0 to 29%	30 to 44%	0 to 29%	0 to 29%	0 to 29%	0 to 29%	0 to 29%	0 to 29%	0 to 29%	30 to 44%	95 to 100%	0 to 29%	60 to 74%	pest or weed control at 140 g/ha [2, 9]: 85 to 94%; pest or weed control at 35 g/ha [2, 10]: 30 to 44%; pest or weed control at 70 g/ha [2, 10]: 45 to 59%; pest or weed control at 140 g/ha [2, 10]: 60 to 74%; pest or weed control at 35 g/ha [2, 11]: 85 to 94%; pest or weed control at 70 g/ha [2, 11]: 95 to 100%; pest or weed control at 140 g/ha [2, 11]: 95 to 100%; pest or weed control at 35 g/ha [2, 12]: 60 to 74%; pest or weed control at 70 g/ha [2, 12]: 85 to 94%; pest or weed control at 140 g/ha [2, 12]: 95 to 100%; pest or weed control at 35 g/ha [2, 13]: 0 to 29%; pest or weed control at 70 g/ha [2, 13]: 75 to 84%; pest or weed control at 140 g/ha [2, 13]: 75 to 84%; pest or weed control at 35 g/ha [2, 14]: 0 to 29%; pest or weed control at 70 g/ha [2, 14]: 0 to 29%; pest or weed control at 140 g/ha [2, 14]: 0 to 29%
